# Literature values as cited in patent US4018912A, “Tripeptide derivatives with central nervous system activity and preparation thereof” (Ayerst McKenna and Harrison Ltd., priority 1975, dated 1977).
# Like-named read-outs stand apart in the source and are kept apart here.
# Columns and labels:
# [1] = tested on: effects of L-DOPA; settings: literature (Plotnikoff et al. 1971; Friedman et al. 1973)
# [2] = prior art; due to rapid inactivation in the mammalian body
# [3] = tested on: effects of oxotremorine; settings: literature (Plotnikoff et al. 1972)
# [4] = tested on: sedative effects of deserpidine; settings: mice; literature (Plotnikoff et al. 1973)
# [5] = tested on: sedative effects of deserpidine; settings: monkeys; literature (Plotnikoff et al. 1973)
# [6] = in vivo
substance,measurement,setting,value
H-L-prolyl-L-leucyl-glycinamide [H--Pro--Leu--Gly--NH2],potentiation of the behavioral effects of L-DOPA,[1],"potentiates the behavioral effects of (3,4-dihydroxyphenyl)-L-alanine (L-DOPA)"
same,duration of action,[2],short duration of action
same,antagonism of the effects of oxotremorine,[3],antagonizes the effects of oxotremorine
same,reversal of the sedative effects of deserpidine,[4],reverses the sedative effects of deserpidine
same,reversal of the sedative effects of deserpidine,[5],reverses the sedative effects of deserpidine
same,first step in the inactivation,[6],proteolytic cleavage of the Pro-Leu bond with formation of proline and leucyl-glycinamide
